Source: patent publication US8546376B2, “Pharmaceutical compounds” (Almac Discovery Limited, priority 2009, dated 2013)
Structures can show the parent of a compound that is named as a salt.

What was measured:
Type in all cases: biochemical
AKT2 = target: T1, AKT2 (Homo sapiens, UniProt P31751); assay: AKT Kinase Assay (IMAP fluorescent polarisation) vs AKT2; conditions: activated AKT2, FAM Crosstide substrate
T1 construct: purchased SignalChem
Method: (§1) Testing of the compounds was performed using an AKT Kinase Assay:
(§2) Activated AKT isoforms 1, 2 and 3 were assayed utilising a 5′ FAM Crosstide (Seq. GRPRTSSFAEG-OH). The extent of kinase phosphorylation was determined by fluorescent polarisation using IMAP progressive binding reagent, which introduces binding beads which allow the reagent to specifically bind to phosphate residues via covalent co-ordination complex bonds.
(§3) iMAP binding solution stops Crosstide/kinase interaction and specifically binds phosphorylated substrates. The degree of phosphorylation is determined by fluorescent polarisation (excitation 485 nm; emission 528 nm) or the reduction in speed of rotation of the excited substrate.
(§4) The following materials were used in the assay: • a) Activated AKT isoforms (SignalChem.) dissolved in Complete Reaction buffer at a pre-determined concentration selected so that the assay was carried out in the linear range. • b) AKT substrate peptide: FAM Crosstide (R7110) Molecular Devices, diluted in complete reaction buffer. • c) iMAP Progressive Screening Express Kit (R8127) Molecular Devices • d) Complete Reaction Buffer containing 0.1% BSA, 10 mM Tris-HCl, 10 mM MgCl2, 0.05% NaN3 and 0.01% phosphate free BSA, 1 mM DTT • e) Progressive Binding Solution containing 75% Buffer A, 25% Buffer B and low volume Binding Reagent which contains the binding entity for the assay • f) ATP diluted in complete reaction buffer • g) Black polystyrene 384 well assay plates (Nunc). • h) Biotek Synergy 4 Hybrid Plate reader.
(§5) 5 μl of test compound was dissolved in DMSO (Sigma Aldrich) and serially diluted in complete reaction buffer to give a fourteen point half log dose response and plated into 384 well black plates. The compound was incubated at room temperature with activated AKT isoform (5 μl) at the pre-determined concentration, for 45 minutes.
(§6) 2.5 μl of ATP solution mixed with 2.5 μl of AKT substrate peptide (FAM Crosstide (R7110) Molecular Devices) were dispensed into each well and the plate centrifuged at 1000 rpm for 20 seconds to ensure homogenous mixing of reagents. The reaction mix was incubated in the dark for one hour at room temperature.
(§7) The kinase reaction was stopped by the addition of Progressive Binding Solution and the mixture allowed to equilibrate for one hour in the dark, at room temperature.
(§8) The fluorescent polarisation generated in each well was determined using a […] Synergy 4 Hybrid plate reader. In brief, each reaction solution was excited at 485 nm with the emission measured at 528 nm in both the parallel and perpendicular pathway.
(§9) The polarisation value generated in each well was calculated by Gen5 software (Biotek) and the % inhibition of kinase activity compared to vehicle control was calculated via GraphPad Prism. IC50 values for each compound were calculated by non-linear regression analysis using Prism software.
(§10) All plates were internally controlled by two methods. Firstly, by calculating the signal:noise ratio; based on kinase polarisation without inhibitor and polarisation generated by complete reaction buffer in the absence of activated kinase. Secondly by determining IC50 values generated by known inhibitors of the AKT isoforms.

AKT1 = target: T2, AKT1 (Homo sapiens, UniProt P31749); assay: AKT Kinase Assay (IMAP fluorescent polarisation) vs AKT1; conditions: activated AKT1, FAM Crosstide substrate
T2 construct: purchased SignalChem
T2 sequence (P31749 whole entry): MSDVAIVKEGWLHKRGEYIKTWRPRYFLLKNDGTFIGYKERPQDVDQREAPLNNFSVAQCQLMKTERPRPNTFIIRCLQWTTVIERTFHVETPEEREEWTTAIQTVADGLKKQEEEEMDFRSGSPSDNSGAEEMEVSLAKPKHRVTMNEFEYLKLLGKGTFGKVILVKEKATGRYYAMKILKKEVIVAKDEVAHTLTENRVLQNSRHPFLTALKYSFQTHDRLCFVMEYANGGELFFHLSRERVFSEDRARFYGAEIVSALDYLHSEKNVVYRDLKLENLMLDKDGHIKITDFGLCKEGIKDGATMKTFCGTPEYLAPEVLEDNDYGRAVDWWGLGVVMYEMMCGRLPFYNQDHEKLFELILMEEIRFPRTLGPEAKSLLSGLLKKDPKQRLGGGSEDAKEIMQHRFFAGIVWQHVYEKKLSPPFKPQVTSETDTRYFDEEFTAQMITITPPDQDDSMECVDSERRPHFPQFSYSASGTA
Method: as §1, §2, §3, §4, §5, §6, §7, §8, §9, §10

AKT3 = target: T3, AKT3 (Homo sapiens, UniProt Q9Y243); assay: AKT Kinase Assay (IMAP fluorescent polarisation) vs AKT3; conditions: activated AKT3, FAM Crosstide substrate
T3 construct: purchased SignalChem
T3 sequence (Q9Y243 whole entry): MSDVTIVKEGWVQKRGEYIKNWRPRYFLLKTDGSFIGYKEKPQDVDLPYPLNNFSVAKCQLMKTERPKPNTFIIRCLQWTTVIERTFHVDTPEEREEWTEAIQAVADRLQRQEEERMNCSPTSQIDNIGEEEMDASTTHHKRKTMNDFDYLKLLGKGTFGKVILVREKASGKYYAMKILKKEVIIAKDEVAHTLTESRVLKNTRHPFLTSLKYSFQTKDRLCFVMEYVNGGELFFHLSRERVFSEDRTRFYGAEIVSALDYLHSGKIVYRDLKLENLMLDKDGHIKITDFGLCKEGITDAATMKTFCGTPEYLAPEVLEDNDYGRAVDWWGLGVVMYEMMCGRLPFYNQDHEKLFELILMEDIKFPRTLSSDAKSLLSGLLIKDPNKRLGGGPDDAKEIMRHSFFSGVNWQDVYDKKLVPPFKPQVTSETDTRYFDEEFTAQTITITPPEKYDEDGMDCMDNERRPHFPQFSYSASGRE
Method: as §1, §2, §3, §4, §5, §6, §7, §8, §9, §10

T1 sequence (P31751 whole entry): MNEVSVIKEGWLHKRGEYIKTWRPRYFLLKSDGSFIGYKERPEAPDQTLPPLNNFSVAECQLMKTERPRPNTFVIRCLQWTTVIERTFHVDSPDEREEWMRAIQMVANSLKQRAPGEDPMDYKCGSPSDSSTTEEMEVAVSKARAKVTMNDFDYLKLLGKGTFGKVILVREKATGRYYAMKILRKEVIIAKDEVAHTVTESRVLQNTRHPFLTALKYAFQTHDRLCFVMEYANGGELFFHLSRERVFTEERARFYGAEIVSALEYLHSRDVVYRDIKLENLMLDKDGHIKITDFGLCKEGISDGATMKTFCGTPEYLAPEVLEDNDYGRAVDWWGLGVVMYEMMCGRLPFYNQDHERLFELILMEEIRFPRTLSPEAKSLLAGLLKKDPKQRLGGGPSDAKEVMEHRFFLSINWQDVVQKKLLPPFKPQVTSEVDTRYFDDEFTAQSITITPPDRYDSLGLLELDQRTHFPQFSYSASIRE

Compound	IC50 (AKT2) [µM]	IC50 (AKT1) [µM]	IC50 (AKT3) [µM]
COc1cccc2c(=O)c(-c3ccc(C4(N)CCC4)cc3)c(-c3ccccc3)oc12 [Example 16, 3-[4-(1-Amino-cyclobutyl)-phenyl]-8-methoxy-2-phenyl-chromen-4-one]	1 to 10	1 to 10	1 to 10
NC1(c2ccc(-c3c(-c4ccccc4)oc4cc(-c5ccn[nH]5)ccc4c3=O)cc2)CCC1 [Example 17]	1 to 10	> 10	> 10
NC(=O)c1ccc2c(=O)c(-c3ccc(C4(N)CCC4)cc3)c(-c3ccccc3)oc2c1 [Example 18, 3-[4-(1-Amino-cyclobutyl)-phenyl]-4-oxo-2-phenyl-4H-chromene-7-carboxylic acid amide]	1 to 10	> 10	> 10
NC1(c2ccc(-c3c(-c4ccccc4)oc4ccc(Br)cc4c3=O)cc2)CCC1 [Example 19, 3-[4-(1-Amino-cyclobutyl)-phenyl]-6-bromo-2-phenyl-chromen-4-one]	1 to 10	1 to 10	1 to 10
N#Cc1ccc2oc(-c3ccccc3)c(-c3ccc(C4(N)CCC4)cc3)c(=O)c2c1 [Example 21, 3-[4-(1-Amino-cyclobutyl)-phenyl]-4-oxo-2-phenyl-4H-chromene-6-carbonitrile]	1 to 10	1 to 10	> 10
NC1(c2ccc(-c3c(-c4ccccc4)oc4ccc(-n5ccnc5)cc4c3=O)cc2)CCC1 [Example 22, 3-[4-(1-Amino-cyclobutyl)-phenyl]-6-imidazol-1-yl-2-phenyl-chromen-4-one]	1 to 10	1 to 10	> 10
NC1(c2ccc(-c3c(-c4ccccc4)oc4cc(F)c(F)cc4c3=O)cc2)CCC1 [Example 23, 3-[4-(1-Amino-cyclobutyl)-phenyl]-6,7-difluoro-2-phenyl-chromen-4-one]	1 to 10	1 to 10	> 10
NC1(c2ccc(-c3c(-c4ccccc4)oc4cc(OC(F)(F)F)ccc4c3=O)cc2)CCC1 [Example 24, 3-[4-(1-Amino-cyclobutyl)-phenyl]-2-phenyl-7-trifluoromethoxy-chromen-4-one]	1 to 10	> 10	> 10
NC1(c2ccc(-c3c(-c4ccccc4)oc4ccc(OC(F)(F)F)cc4c3=O)cc2)CCC1 [Example 25, 3-[4-(1-Amino-cyclobutyl)-phenyl]-2-phenyl-6-trifluoromethoxy-chromen-4-one]	1 to 10	> 10	> 10
COc1cc2c(=O)c(-c3ccc(C4(N)CCC4)cc3)c(-c3ccccc3)oc2cc1Br [Example 26, 3-[4-(1-Amino-cyclobutyl)-phenyl]-7-bromo-6-methoxy-2-phenyl-chromen-4-one]	1 to 10	> 10	> 10
COc1cc2oc(-c3ccccc3)c(-c3ccc(C4(N)CCC4)cc3)c(=O)c2cc1Br [Example 27, 3-[4-(1-Amino-cyclobutyl)-phenyl]-6-bromo-7-methoxy-2-phenyl-chromen-4-one]	1 to 10	> 10	> 10
COc1cc2c(=O)c(-c3ccc(C4(N)CCC4)cc3)c(-c3ccccc3)oc2cc1-c1ccn[nH]1 [Example 28, 3-[4-(1-Amino-cyclobutyl)-phenyl]-6-methoxy-2-phenyl-7-(2H-pyrazol-3yl)-chromen-4-one]	1 to 10	> 10	> 10
COc1cc2c(=O)c(-c3ccc(C4(N)CCC4)cc3)c(-c3ccccc3)oc2cc1C(N)=O [Example 29, 3-[4-(1-Amino-cyclobutyl)-phenyl]-6-methoxy-4-oxo-2-phenyl-4H-chromene-7-carboxylic acid amide]	≤ 1	1 to 10	> 10
COc1cc2c(=O)c(-c3ccc(C4(N)CCC4)cc3)c(-c3ccccc3)oc2cc1C#N [Example 30, 3-[4-(1-Amino-cyclobutyl)-phenyl]-6-methoxy-4-oxo-2-phenyl-4H-chromene-7-carbonitrile]	1 to 10	> 10	1 to 10
COCCn1ccc2c(=O)c(-c3ccc(C4(N)CCC4)cc3)c(-c3ccccc3)oc2c1=O [Example 31, 3-[4-(1-Amino-cyclobutyl)-phenyl]-7-(2-methoxy-ethyl)-2-phenyl-7H-pyrano[2,3-c]pyridine-4,8-dione]	1 to 10	> 10	1 to 10
NC1(c2ccc(-c3c(-c4ccccc4)oc4c(OC(F)F)nccc4c3=O)cc2)CCC1 [Example 32, 3-[4-(1-Amino-cyclobutyl)-phenyl]-8-difluoromethoxy-2-phenyl-pyrano[2,3-c]pyridin-4-one]	≤ 1	1 to 10	1 to 10
NC1(c2ccc(-c3c(-c4ccccc4)oc4c(ccc5[nH]ncc54)c3=O)cc2)CCC1 [Example 33, 3-[4-(1-Amino-cyclobutyl)-phenyl]-2-phenyl-7H-pyrano[2,3-c]indazol-4-one]	≤ 1	≤ 1	≤ 1
NC1(c2ccc(-c3c(-c4ccccc4)oc4ncccc4c3=O)cc2)CCC1 [Example 34, 3-[4-(1-Amino-cyclobutyl)-phenyl]-2-phenyl-pyrano[2,3-b]pyridin-4-one]	1 to 10	1 to 10	> 10
COc1ccc2c(=O)c(-c3ccc(C4(N)CCC4)cc3)c(-c3ccccc3)oc2n1 [Example 35, 3-[4-(1-Amino-cyclobutyl)-phenyl]-7-methoxy-2-phenyl-pyrano[2,3-b]pyridin-4-one hydrochloride]	1 to 10	1 to 10	1 to 10
NC1(c2ccc(-c3c(-c4ccccc4)oc4[nH]c(=O)ccc4c3=O)cc2)CCC1 [Example 36, 3-[4-(1-Amino-cyclobutyl)-phenyl]-2-phenyl-8H-pyrano[2,3-b]pyridine-4,7-dione hydrochloride]	1 to 10	1 to 10	> 10
NC1(c2ccc(-c3c(-c4ccccc4)oc4cc(F)ccc4c3=O)cc2)CCC1 [Example 37, 3-[4-(1-Amino-cyclobutyl)-phenyl]-7-fluoro-2-phenyl-chromen-4-one hydrochloride]	1 to 10	≤ 1	1 to 10
NC1(c2ccc(-c3c(-c4ccccc4)oc4nc(Cl)ccc4c3=O)cc2)CCC1 [Example 38, 3-[4-(1-Amino-cyclobutyl)-phenyl]-7-chloro-2-phenyl-pyrano[2,3-b]pyridin-4]	1 to 10	1 to 10	> 10
COc1nccc2c(=O)c(-c3ccc(C4(N)CCC4)cc3)c(-c3ccccc3)oc12 [Example 39, 3-[4-(1-Amino-cyclobutyl)-phenyl]-8-methoxy-2-phenyl-pyrano[2,3-c]pyridin-4-one hydrochloride]	≤ 1	≤ 1	1 to 10
Cn1ccc2c(=O)c(-c3ccc(C4(N)CCC4)cc3)c(-c3ccccc3)oc2c1=O [Example 41, 3-[4-(1-Amino-cyclobutyl)-phenyl]-7-methyl-2-phenyl-7H-pyrano[2,3-c]pyridine-4,8-dione hydrochloride]	1 to 10	> 10	> 10
NC1(c2ccc(-c3c(-c4ccccc4)oc4c(Cl)nccc4c3=O)cc2)CCC1 [Example 42, 3-[4-(1-Amino-cyclobutyl)-phenyl]-8-chloro-2-phenyl-pyrano[2,3-c]pyridin-4-one hydrochloride]	≤ 1	≤ 1	1 to 10
NC1(c2ccc(-c3c(-c4ccccc4)oc4c(=O)n(CCO)ccc4c3=O)cc2)CCC1 [Example 43, 3-[4-(1-Amino-cyclobutyl)-phenyl]-7-(2-hydroxy-ethyl)-2-phenyl-7H-pyrano[2,3-c]pyridine-4,8-dione hydrochloride]	> 10	> 10	> 10
NC1(c2ccc(-c3c(-c4ccccc4)oc4c(ccc5nc[nH]c54)c3=O)cc2)CCC1 [Example 45, 7-[4-(1-Amino-cyclobutyl)-phenyl]-8-phenyl-1H-chromeno[7,8-d]imidazol-6-one.TFA]	≤ 1	1 to 10	1 to 10
